How the values were obtained:
[1] = UV-Vis absorption and fluorescence spectroscopy of the Oxazine library; assay type: physicochemical
Summary of the method: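 Absorbance measured at room temperature in 1-cm quartz cuvette, reference corrected; extinction coefficient from Beer's Law plots of absorbance vs concentration. Fluorescence spectra corrected for PMT response; relative quantum yields averaged over multiple measurements against Oxazine 1, Oxazine 170 and Rhodamine 101 references.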

[2] = reported nerve-specific fluorophores; cited from earlier work
[3] = system: nerve and muscle tissue; test: Ex vivo tissue staining nerve-specificity screening
Text: Oxazine derivative library nerve-specificity screening. All 64 Oxazine derivatives were screened for nerve specificity using a previously described ex vivo tissue staining assay (Gibbs, S. L., et al., PloS one 8, e73493 (2013)). Ex vivo nerve and muscle tissue fluorescence intensities varied, with many compounds showing minimal nerve or muscle tissue fluorescence above control autofluorescence following Oxazine derivative staining. […] All Oxazine derivatives were further screened for nerve-specificity in vivo using both direct and systemic administration strategies. The direct administration strategy enabled quantification of nerve-specificity and contrast following fluorophore contact with the nerves and surrounding tissues without the requirement of BNB penetration, providing the most similar comparison to ex vivo nerve-specificity screening. The systemic administration screening studies required not only nerve specificity, but also adequate biodistribution and BNB penetration to generate SBR for visualization.

[4] = system: mouse brachial plexus nerves; test: Nerve imaging at depth under muscle tissue; assay type: in vivo
Protocol: Nerve imaging at depth studies using a model Oxazine derivative. Oxazine 4 and LGW01-08 were used to stain mouse brachial plexus nerves using both direct and systemic administration methods using the same dose and administration methods previously described. The ability to image the brachial plexus nerve at depth was assessed under varying thicknesses of mouse muscle tissue. Muscle tissue was resected from the peritoneal muscle layer and measured for thickness. One and two layers of resected peritoneal muscle tissue was placed over the stained nerves, providing one and two mm thick homogenous tissue through which the stained nerve tissue was imaged. The same muscle tissue was used to cover the stained nerves from both fluorophores with care taken to orient the muscle in the same way to ensure equivalent comparison. The imaging system configuration was changed to reflect the 700 nm channel in clinically relevant FGS systems (Tummers et al., Eur J Surg Oncol 40, 850-858 (2014); Troyan et al., Ann Surg Oncol 16, 2943-2952 (2009); Ashitate et al., The Journal of surgical research 176, 7-13 (2012); Verbeek et al., The Journal of urology 190, 574-579 (2013); Hillary et al., Langenbecks Arch Surg 403, 111-118 (2018); and Mery et al., Oncotarget 8, 109559-109574 (2017). For fluorescence excitation, the PhotoFluor II was filtered with a 650±22.5 nm bandpass excitation filter. The resulting fluorescence was collected with a 720±30 nm bandpass emission filter for image collection. Camera exposure times ranged from 0.025-4 s for fluorescence image collection.
Image analysis of intraoperative nerve contrast. Custom written MatLab code was used to analyze the tissue specific fluorescence where regions of interest (ROIs) were selected on the nerve, muscle and adipose tissue using the white light images, but blinded to the fluorescence images. These ROIs were then analyzed on the co-registered, matched fluorescence images permitting assessment of the mean tissue intensities as well as the nerve to muscle (N/M) and nerve to adipose (N/A) ratios. Fluorescence intensity measurements were divided by the exposure time to obtain normalized intensity per second measurements. Mean nerve to background tissue ratios (N/M and N/A) were calculated for each Oxazine derivative. For nerve imaging at depth image analysis, fluorescent line profiles and 3-D intensity topographical plots were generated in ImageJ using the plot profile and surface plot functions, respectively. The line profiles were background and exposure time corrected by dividing by the exposure time of each image and subtracting the average intensity of background pixels from the entire line profile. […]

Structure (SMILES): CCN=c1cc2oc3cc(NCC)c(C)cc3nc-2cc1C.[O-][Cl+3]([O-])([O-])O [OX-4, reference compound]
- Max Abs [1]: 618 nm
- Max Em [1]: 634 nm
- Max Ex [1]: 620 nm
- Extinction coefficient ([1]; Beer's Law plots): 77156 M⁻¹ cm⁻¹
- Quantum yield ([1]; relative, references Oxazine 1, Oxazine 170, Rhodamine 101): 38.37%
- emission wavelength maximum [2]: 635 nm
- ex vivo nerve specificity (N/M SBR vs unstained control group) [3]: lacked nerve-specificity ex vivo
- width of smallest nerve branches distinguished under muscle tissue ([4]; direct administration, under 1 mm of muscle tissue): did not possess the ability to resolve smaller branches
- thickness of muscle tissue under which nerve tissue could be identified ([4]; following both systemic and direct administration, 700 nm channel filters): 1 mm

Source: US11492359B2, “Near-infrared nerve-sparing fluorophores” (OREGON HEALTH & SCIENCE UNIVERSITY, priority 2018, dated 2022)
